Laboratory results from US5854252A, “Dihalotriazolopyrimidine derivatives” (Shell Internationale Research Maatschappij B.V., priority 1993, dated 1998).
In brackets after ≈: the same amount, converted by molar mass.

What was measured:
Alternaria solani [1] = test: MIC in the serial dilution test, Example 56, Alternaria solani; format: cell-based; settings: microtiter serial dilution, 6-12 days
Description: (§1) The serial dilution test was carried out using Microtiter test with 24 or 48 wells per plate. The test compounds were used a 1000 μg/ml aqueous stock suspension containing 20% acetone which was then sterile filtered in a 0.2μ filter. The dilution of the sterile fungicide suspension with the nutrient solution and the subsequent pipetting into the different wells was carried out using a TECAN RSP 5000 Robotic Sample Processor. The concentrations tested ranged from 100 μg/ml down to 0.05 μg/ml. 12 Dilution steps were made. The nutrient solution was chosen according to the nutrient requirements of the pathogen. The inoculum was added as a droplet (50 μl) of a spore suspension (5×10^8 /ml) into the wells. After 6-12 days incubation at suitable temperatures, the MIC value was determined by visual estimation. The lowest concentration in the dilution row without mycelial growth was defined as the MIC value.

Botrytis cinerea [2] = test: MIC in the serial dilution test, Example 56, Botrytis cinerea; format: cell-based; settings: microtiter serial dilution, 6-12 days
Description: as §1

Rhizoctonia solani = test: MIC in the serial dilution test, Example 56, Rhizoctonia solani; format: cell-based; settings: microtiter serial dilution, 6-12 days
Description: as §1

Botrytis cinerea [3] = test: MIC by serial dilution, Example 55, Botrytis cinerea; format: cell-based; settings: microtitre plates, 20° C., 6-8 days
Description: (§2) The MIC (Minimum Inhibition Concentration)-values were determined by serial dilution tests using 48-well microtitre plates. The dilution of the test compounds in the nutrient solution and the distribution to the wells were carried out by a TECAN RSP 5000 robotic sample processor.
(§3) For preparation of the nutrient solution, V8 juice (Trade Mark) was neutralised with calcium carbonate and centrifuged. The supernatant was diluted with distilled water (1:5) to the final concentration.
(§4) The fungi (Alternaria solani, Botrytis cinerea, Pseudocercosporella herpotrichoides, Micronectriella nivalis, Gaeumannomyces graminis) were added into the wells as a droplet of spore suspension. The microtitre plates were then incubated at 20° C. for 6-8 days. The MIC-value, which was defined to be the lowest concentration in the dilution series without mycelial growth, was determined by visual inspection of the plates.

[4] = system: Pseudocercosporella herpotrichoides; test: Activity against wheat eyespot in-vitro (PHI), Example 53(j); format: cell-based; settings: 50 ppm, 12 days at 20° C.
Description: This test measures the in vitro activity of compounds against the fungus causing wheat eyespot. The test compound is dissolved or suspended in acetone and is added into 4 ml aliquots of half strength Potato Dextrose Broth dispensed in 25-compartment petri dishes to give a final concentration of 50 ppm compound and 2.5% acetone. Each compartment is inoculated with a 6 mm diameter plug of agar/mycelium taken from a 14 day old culture of P. herpotrichoides. Plates are incubated at 20° C. for 12 days until the assessment of mycelial growth. The extent of disease control in all the above tests is expressed as a rating compared with either an untreated control or a diluent-sprayed-control, according to the criteria: […]

Leptosphaeria nodorum = test: Activity against wheat leafspot (LN), Example 53(f); format: in vivo; settings: therapeutic foliar spray, 1000 ppm
Description: The test is a direct therapeutic one, using a foliar spray. Leaves of wheat plants (cv Norman), at the single leaf stage, are inoculated by spraying with an aqueous suspension containing 1×10^6 spores/ml. The inoculated plants are kept for 24 hours in a high humidity compartment prior to treatment. The plants are sprayed with a solution of the test compound at a dosage of 1000 ppm using an automated sprayline as described under (a). After drying, the plants are kept for 6-8 days at 22° C. and moderate humidity, followed by assessment. Assessment is based on the density of lesions per leaf compared with that on leaves of control plants. The extent of disease control in all the above tests is expressed as a rating compared with either an untreated control or a diluent-sprayed-control, according to the criteria: […]

Alternaria solani [5] = test: MIC by serial dilution, Example 55, Alternaria solani; format: cell-based; settings: microtitre plates, 20° C., 6-8 days
Description: as §2, §3, §4

Gaeumannomyces graminis = test: MIC by serial dilution, Example 55, Gaeumannomyces graminis; format: cell-based; settings: microtitre plates, 20° C., 6-8 days
Description: as §2, §3, §4

[6] = system: Pseudocercosporella herpotrichoides; test: MIC by serial dilution, Example 55, Pseudocercosporella herpotrichoides; format: cell-based; settings: Oculimacula yallundae; microtitre plates, 20° C., 6-8 days
Description: as §2, §3, §4

Micronectriella nivalis = test: MIC by serial dilution, Example 55, Micronectriella nivalis; format: cell-based; settings: microtitre plates, 20° C., 6-8 days
Description: as §2, §3, §4

Puccinia arachidis = test: Field pot test with Puccinia arachidis on peanuts; format: in vivo; settings: topical, 456 h, 500 μg/ml spray, 1000 l/ha, 19 days after treatment, Abbott formula, read-out: % efficacy Puccinia arachidis
Description: 15 seeds of peanuts were sown in pots filled with a soil substrate. When the plants have developed 4 true leaves the fungicides and the test compounds were applied using a hand sprayer. The test compounds were applied at a concentration of 500 μg/ml in a […] containing 10% acetone and 0.05% Triton X 155 in water. The total amount of […] corresponded to 1000 l/ha. Six replicates per treatment were used. 2 Days after treatment the pots were exposed to peanut plants in the field on which the fungus, Puccinia arachidis, had formed sporulating pustules on the leaves. The assessment was carried out 19 days after treatment by estimating the percentage of infected leaf area. The % efficacy was calculated using the Abbott formula.

Cercospora arachidicola = test: Field pot test with Cercospora arachidicola on peanuts; format: in vivo; settings: Mycosphaerella arachidis, topical, 360 h, 500 μg/ml spray, 1000 l/ha, 15 days after treatment, Abbott formula, read-out: % efficacy Cercospora arachidicola
Description: 15 Seeds of peanuts were sown in pots filled with a soil substrate. When the plants have developed 4 true leaves (approx. 12-14 days after seeding) the fungicides and the test compounds were applied using a hand sprayer. The test compounds were applied at a concentration of 500 μg/ml in a […] containing 10% acetone and 0.05% Triton X 155 in water. The total amount of […] corresponded to 1000 l/ha. Six replicates (pots) per treatment were used. 2 days after treatment the pots were exposed to peanut plants in the field on which the fungus, Cercospora arachidicola, had formed sporulating lesions. The assessment was carried out 15 days after treatment by estimating the percentage of infected leaf area. The % efficacy was calculated using the Abbott formula.

Cc1cccc(Oc2c(Cl)nc3ncnn3c2Cl)c1 [Example 49]
MIC (Alternaria solani [1]): 25 µg/mL (≈ 84.7 µM) | MIC (Botrytis cinerea [2]): 6.25 µg/mL (≈ 21.2 µM) | MIC (Rhizoctonia solani): > 100 µg/mL

O=S(=O)(Cl)c1ccccc1-c1c(Cl)nc2ncnn2c1Cl [Example 6]
MIC (Botrytis cinerea [3]): > 100 µg/mL

CCOc1cccc(-c2c(Cl)nc3ncnn3c2Cl)c1OCC [Example 24]
Fungicidal Activity PHI (disease control rating) [4]: 2 (greater than 80% disease control) | Fungicidal Activity LN (disease control rating) (Leptosphaeria nodorum): 1 (about 50-80% disease control)

FC(F)(F)c1ccc(-c2c(Br)nc3ncnn3c2Br)cc1 [Example 42]
MIC (Botrytis cinerea [3]): > 100 µg/mL | MIC (Alternaria solani [5]): > 100 µg/mL

Cc1ccc(-c2c(Cl)nc3ncnn3c2Cl)cc1C [Example 31]
MIC (Gaeumannomyces graminis): 0.78 µg/mL (≈ 2.66 µM) | MIC [6]: 12.5 µg/mL (≈ 42.6 µM) | MIC (Micronectriella nivalis): 3.13 µg/mL (≈ 10.7 µM)

Clc1nc2ncnn2c(Cl)c1-c1ccc(-c2ccccc2)cc1 [Example 13]
MIC (Gaeumannomyces graminis): 0.39 µg/mL (≈ 1.14 µM) | Fungicidal Activity PHI (disease control rating) [4]: 2 (greater than 80% disease control) | MIC [6]: > 100 µg/mL | MIC (Micronectriella nivalis): 6.25 µg/mL (≈ 18.3 µM)

CCOc1c(Cl)nc2ncnn2c1Cl [Example 50]
MIC (Alternaria solani [1]): 12.5 µg/mL (≈ 53.6 µM) | MIC (Botrytis cinerea [2]): 25 µg/mL (≈ 107 µM) | MIC (Rhizoctonia solani): 100 µg/mL (≈ 429 µM)

Clc1nc2ncnn2c(Cl)c1-c1cccc2ccccc12 [Example 23]
Fungicidal Activity PHI (disease control rating) [4]: 1 (about 50-80% disease control)

Cc1cccc(C)c1Oc1c(Cl)nc2ncnn2c1Cl [Example 48]
MIC (Alternaria solani [1]): 25 µg/mL (≈ 80.9 µM) | MIC (Botrytis cinerea [2]): > 100 µg/mL | MIC (Rhizoctonia solani): > 100 µg/mL

FC(F)(F)c1ccccc1-c1c(Br)nc2ncnn2c1Br [Example 44]
MIC (Botrytis cinerea [3]): > 100 µg/mL | MIC (Alternaria solani [5]): > 100 µg/mL

Clc1nc2ncnn2c(Cl)c1-c1ccccc1Br [Example 18]
Fungicidal Activity PHI (disease control rating) [4]: 2 (greater than 80% disease control)

CC(C)c1c(Cl)nc2ncnn2c1Cl [Example 51]
MIC (Alternaria solani [1]): 12.5 µg/mL (≈ 54.1 µM) | MIC (Botrytis cinerea [2]): 12.5 µg/mL (≈ 54.1 µM) | MIC (Rhizoctonia solani): 25 µg/mL (≈ 108 µM)

CC(C)(C)c1ccc(-c2c(Cl)nc3ncnn3c2Cl)cc1 [Example 36]
MIC (Gaeumannomyces graminis): 0.78 µg/mL (≈ 2.43 µM) | MIC [6]: 3.13 µg/mL (≈ 9.74 µM) | MIC (Micronectriella nivalis): 0.39 µg/mL (≈ 1.21 µM)

Fc1cccc(Cl)c1-c1c(Br)nc2ncnn2c1Br [Example 41]
MIC (Botrytis cinerea [3]): 25 µg/mL (≈ 61.5 µM) | MIC (Alternaria solani [5]): 50 µg/mL (≈ 123 µM)

FC(F)(F)c1cccc(-c2c(Cl)nc3ncnn3c2Cl)c1 [Example 7]
pest or weed control at 500 µg/mL (Puccinia arachidis): 25% | Fungicidal Activity PHI (disease control rating) [4]: 2 (greater than 80% disease control) | pest or weed control at 500 µg/mL (Cercospora arachidicola): 58%

COc1ccc(-c2c(Cl)nc3ncnn3c2Cl)cc1 [Example 38]
pest or weed control at 500 µg/mL (Puccinia arachidis): 42% | pest or weed control at 500 µg/mL (Cercospora arachidicola): 42%

CCOc1ccc(-c2c(Cl)nc3ncnn3c2Cl)cc1 [Example 3]
MIC (Gaeumannomyces graminis): 0.2 µg/mL (≈ 0.647 µM) | MIC [6]: 6.25 µg/mL (≈ 20.2 µM) | MIC (Micronectriella nivalis): 0.78 µg/mL (≈ 2.52 µM)

Fc1cccc(-c2c(Cl)nc3ncnn3c2Cl)c1 [Example 17]
MIC (Gaeumannomyces graminis): 0.78 µg/mL (≈ 2.76 µM) | Fungicidal Activity PHI (disease control rating) [4]: 2 (greater than 80% disease control) | MIC [6]: 25 µg/mL (≈ 88.3 µM) | MIC (Micronectriella nivalis): 12.5 µg/mL (≈ 44.2 µM)

COc1cccc(-c2c(Cl)nc3ncnn3c2Cl)c1OC [Example 21]
Fungicidal Activity PHI (disease control rating) [4]: 2 (greater than 80% disease control)

Fc1ccc(-c2c(Cl)nc3ncnn3c2Cl)cc1 [Example 11]
pest or weed control at 500 µg/mL (Puccinia arachidis): 25% | MIC (Gaeumannomyces graminis): 0.2 µg/mL (≈ 0.706 µM) | Fungicidal Activity PHI (disease control rating) [4]: 2 (greater than 80% disease control) | MIC [6]: 3.13 µg/mL (≈ 11.1 µM) | pest or weed control at 500 µg/mL (Cercospora arachidicola): 33% | MIC (Micronectriella nivalis): 0.39 µg/mL (≈ 1.38 µM)

Clc1ccccc1-c1c(Cl)nc2ncnn2c1Cl [Example 1, 5,7-dichloro-6-(2-chlorophenyl)-1,2,4-triazolo-[1,5a]pyrimidine]
MIC (Gaeumannomyces graminis): 3.13 µg/mL (≈ 10.4 µM) | Fungicidal Activity PHI (disease control rating) [4]: 2 (greater than 80% disease control) | MIC [6]: 25 µg/mL (≈ 83.5 µM) | MIC (Micronectriella nivalis): 1.56 µg/mL (≈ 5.21 µM)

Clc1nc2ncnn2c(Cl)c1-c1ccc2ccccc2c1 [Example 10]
Fungicidal Activity PHI (disease control rating) [4]: 2 (greater than 80% disease control)

COc1ccc(-c2c(Cl)nc3ncnn3c2Cl)cc1OC [Example 14]
MIC (Gaeumannomyces graminis): 0.78 µg/mL (≈ 2.4 µM) | Fungicidal Activity PHI (disease control rating) [4]: 2 (greater than 80% disease control) | MIC [6]: 25 µg/mL (≈ 76.9 µM) | MIC (Micronectriella nivalis): 6.25 µg/mL (≈ 19.2 µM)

Clc1nc2ncnn2c(Cl)c1-c1ccc(Oc2ccccc2)cc1 [Example 12]
pest or weed control at 500 µg/mL (Puccinia arachidis): 33% | pest or weed control at 500 µg/mL (Cercospora arachidicola): 67%

FC(F)(F)Oc1ccc(-c2c(Cl)nc3ncnn3c2Cl)cc1 [Example 9]
pest or weed control at 500 µg/mL (Puccinia arachidis): 25% | MIC (Gaeumannomyces graminis): 0.1 µg/mL (≈ 0.286 µM) | Fungicidal Activity PHI (disease control rating) [4]: 2 (greater than 80% disease control) | MIC [6]: 12.5 µg/mL (≈ 35.8 µM) | pest or weed control at 500 µg/mL (Cercospora arachidicola): 50% | MIC (Micronectriella nivalis): 0.78 µg/mL (≈ 2.23 µM)

Clc1ccc(-c2c(Cl)nc3ncnn3c2Cl)cc1Cl [Example 25]
pest or weed control at 500 µg/mL (Puccinia arachidis): 42% | pest or weed control at 500 µg/mL (Cercospora arachidicola): 25% | Fungicidal Activity LN (disease control rating) (Leptosphaeria nodorum): 1 (about 50-80% disease control)

Fc1ccccc1-c1c(Cl)nc2ncnn2c1Cl [Example 16]
pest or weed control at 500 µg/mL (Puccinia arachidis): 42% | Fungicidal Activity PHI (disease control rating) [4]: 2 (greater than 80% disease control) | pest or weed control at 500 µg/mL (Cercospora arachidicola): 50%

Clc1nc2ncnn2c(Cl)c1-c1ccc(Br)cc1 [Example 19]
MIC (Gaeumannomyces graminis): 0.1 µg/mL (≈ 0.291 µM) | Fungicidal Activity PHI (disease control rating) [4]: 2 (greater than 80% disease control) | MIC [6]: 12.5 µg/mL (≈ 36.3 µM) | MIC (Micronectriella nivalis): 6.25 µg/mL (≈ 18.2 µM)

Clc1nc2ncnn2c(Cl)c1-c1ccc(OCc2ccccc2)cc1 [Example 15]
Fungicidal Activity LN (disease control rating) (Leptosphaeria nodorum): 1 (about 50-80% disease control)

Fc1cccc(-c2c(Br)nc3ncnn3c2Br)c1 [Example 43]
MIC (Botrytis cinerea [3]): > 100 µg/mL | MIC (Alternaria solani [5]): > 100 µg/mL
